Read-outs that look alike come from different tables or passages of the source.

In one assay the test system is JAK. As to conditions: cited from earlier work.
For assay [1], the system named is dry skin model mouse. Briefly: NMF production in dry skin model mouse (confocal Raman). The assay is classed as in vivo. The note with it: dry skin (A/E/W) model mouse, 0.5% (w/v) topical once a day, Day 7; FIG. 11. The method, then:
(§1) “Production of Dry Skin Model Mouse”
(§2) Using a dry skin model mouse <Non-Patent Literature 12>, the effect of improving the skin barrier function by a JAK inhibitor was evaluated. As an experimental animal, an 8 weeks old female C57BL/6JJmsSlc mouse {Japan SLC, Inc.} was used.
Absorbent cotton dipped in a mixed liquid of acetone and diethyl ether (1:1) was put on the surface of the inner side of the right or both auricles of the mouse for 30 seconds, and then absorbent cotton dipped in water was put on the same region for 30 seconds <hereinafter, abbreviated as an A/E/W treatment>. This treatment was conducted twice a day for seven days for each group to produce a dry skin model. […]
A mouse having undergone the A/E/W treatment on its both auricles was used in the experiment. On Day 7, the total NMF amount of the stratum corneum of both the auricles of the mouse was determined by an in vivo confocal Raman spectrometer {model 3510, River Diagnostics, Inc.} <Compound A administration group and Vehicle group; n=3, respectively>.
A Raman spectrum in the region of 400 to 1800 cm^−1 was measured at an excitation wavelength of 785 nm at intervals of 1 micrometer from the surface of the inner side of the left auricle to the depth of 8 micrometers. A total NMF amount was quantified as an amount per keratin by using Skin Tools 2.0 {River Diagnostics, Inc.}. […]

Assay [2] has as its system dry skin model mouse. Briefly: Profilaggrin mRNA amount in dry skin model mouse (quantitative real-time PCR). The note with it: dry skin (A/E/W) model mouse, 0.5% (w/v) topical once a day, Days 0, 3 and 6, ratio to Day 0; FIG. 10. The assay is classed as in vivo. The method, then: Experiment 5. Increase in Profilaggrin mRNA Amount, Increase of NMF Production and Acceleration of Reduction in TEWL by JAK Inhibitor in Dry Skin Model Mouse
as §1, §2
Absorbent cotton dipped in a mixed liquid of acetone and diethyl ether (1:1) was put on the surface of the inner side of the right or both auricles of the mouse for 30 seconds, and then absorbent cotton dipped in water was put on the same region for 30 seconds <hereinafter, abbreviated as an A/E/W treatment>. This treatment was conducted twice a day for seven days for each group to produce a dry skin model. The day on which the A/E/W treatment started was taken as Day 0. […]
“Quantitative Real-Time PCR”
A mouse having undergone the A/E/W treatment on its right auricle was used in the experiment. […] The cDNA was analyzed by real-time PCR method <intercalator method> using Light Cycler 480 SYBR Green I Master {Roche Diagnostics K.K.} and Light Cycler 480 II {Roche Diagnostics K.K.}, and the Ct values of mouse profilaggrin and GAPDH were respectively determined. […] A relative mRNA amount of mouse profilaggrin was calculated by comparative Ct method. […]
On the technique in general: Quantitative PCR measures a nucleic acid by following its amplification.

The test system of assay [3] is three-dimensional culture skin model TESTSKIN LSE-high. Briefly: Increase in protein amount of skin barrier-related protein in three-dimensional culture skin model (Western blotting). As to conditions: 1000 nmol/L. The assay is classed as cell-based, human. Here is the method:
Experiment 4. Increase in Protein Amount of Skin Barrier-Related Protein by JAK Inhibitor in Three-Dimensional Culture Skin Model
As a three-dimensional cultured skin model, TESTSKIN LSE-high {TOYOBO CO., LTD., TMLSE-013A} was used <Non-Patent Literature 11>. According to the instruction manual of the TESTSKIN LSE-high, the Living Skin Equivalent <LSE> tissue on the Transwell was cultured in an assay medium included in the kit at 37° C. under 5% CO2 for 24 hours.
After removing the medium from the LSE tissue culture system, an assay medium containing Compound A in a final concentration of 1000 nmol/L was added in the presence or absence of human IL-4 and human IL-13 {R&D Systems, Inc.} in a final concentration of 20 ng/mL, respectively, and the LSE tissue was cultured at 37° C. under 5% CO2 for three days. The medium was replaced in the same manner as described above, and the LSE tissue was cultured at 37 ° C. under 5% CO2 for another two days. The skin layer of the LSE tissue was collected in a tube, and 0.1 mL of a 50 mmol/L Tris-HCl (pH 8.0) buffer containing 9 mol/L urea, 2% Triton X-100, protease inhibitor cocktail {Sigma-Aldrich Corporation, P8340} and phosphatase inhibitor cocktail {NACALAI TESQUE, INC., 07575-51} was added, and lysed by ultrasonication. To the tissue lysate, 0.08 mL of laemmli SDS-PAGE sample buffer containing 1.73 mmol/L 2-mercaptoethanol was added, and heated at 95 degrees Celsius for five minutes to thermally denature proteins.
The thermally denatured proteins (0.015 mg/lane) were separated by SDS-polyacrylamide electrophoresis <SDS-PAGE> on 4-12% NuPAGE Bis-Tris gel {Life technologies Corporation}, and filaggrin protein and loricrin protein were detected by Western blotting method. As an internal standard, GAPDH protein was detected. According to ordinary methods, the protein that was separated by SDS-PAGE was blotted on a PVDF membrane {GE Healthcare Ltd.}, and the PVDF membrane was blocked with 5% skim milk {NACALAI TESQUE, INC.}. […] The protein of interest was detected by light exposure to an autoradiography film, Amersham Hyperfilm ECL {GE Healthcare Ltd.} from the PVDF membrane, by using a chemiluminescent substrate {ECL Western Blotting Detection Reagents; GE Healthcare Ltd., RPN2232} according to the instruction manual.
Background: A western blot detects proteins with antibodies after separation by electrophoresis.

The subject of assay [4] is contact dermatitis model mouse. Briefly: Suppression of ear swelling in contact dermatitis model mouse (DNFB). The assay is classed as in vivo. As to conditions: oral 0.3 or 3 mg/mL at 10 mL/Kg once a day, 24 hours from initiation, FIG. 7. The method, then:
Using a contact dermatitis model mouse against DNFB <Non-Patent Literature 10>, the ear swelling suppressing action of the JAK inhibitor was evaluated. As an experimental animal, an 8 weeks old female C57BL/6j mouse {SHIMIZU Laboratory Supplies Co., Ltd.} was used.
An abdominal region of the mouse was shaved, and each 0.025 mL of 0.5% (w/v) DNFB {2,4-Dinitrofluorobenzene, Sigma-Aldrich Corporation} diluted with AOO <mixed solution of acetone and olive oil in 4:1> was applied on the abdominal region . After five days, each 0.01 mL of 0.3% (w/v) DNFB diluted with AOO was applied on the front and back of both the auricles of the mouse . For five days from the date of sensitization, 0.5% (w/v) methylcellulose <MC> was administered once a day to the Vehicle group, and 0.3 mg/mL or 3 mg/mL of Compound A suspended in 0.5% (w/v) MC was orally administered to Compound A administration group in a dose of 10 mL/Kg. Each group included three animals. On the days of sensitization and initiation, 0.5% (w/v) MC or Compound A was orally administered one hour before sensitization and initiation.
Before initiation and after 24 hours from initiation, the thickness of each auricle was measured once with a thickness gauge {TECLOCK Corporation}, and an average of the variation from the thickness of each auricle before initiation was taken as an individual value.

The test system of assay [5] is dry skin model mouse. Briefly: TEWL in dry skin model mouse. As to conditions: dry skin (A/E/W) model mouse, 0.5% (w/v) topical once a day, Days 0, 1, 3, 4 and 7; FIG. 12. The assay is classed as in vivo. The method, then:
as §1, §2
Absorbent cotton dipped in a mixed liquid of acetone and diethyl ether (1:1) was put on the surface of the inner side of the right or both auricles of the mouse for 30 seconds, and then absorbent cotton dipped in water was put on the same region for 30 seconds <hereinafter, abbreviated as an A/E/W treatment>. This treatment was conducted twice a day for seven days for each group to produce a dry skin model. The day on which the A/E/W treatment started was taken as Day 0. As a normal control group, a mouse not having undergone the A/E/W treatment was used. […]
A mouse having undergone the A/E/W treatment on its right auricle was used in the experiment. TEWL in the region where the A/E/W treatment had been conducted was measured directly before the A/E/W treatment on Days 0, 1, 3 and 4, and on Day 7 <Compound A administration group and Vehicle group; n=4, respectively>. TEWL was measured by using a water loss measuring device VAPOSCAN AS-VT100RS {ASAHIBIOMED} at room temperatures (23° C. to 26° C.) and a humidity of 40% to 60%. […]

Assay [6] has as its system Tape Stripping-treated mouse. Briefly: NMF production increasing action in Tape Stripping-treated mouse (confocal Raman). The assay is classed as in vivo. The note with it: 0.5% (w/v) in acetone applied to auricle once a day, one, five and seven days after Tape Stripping, FIGS. 5, 6. Here is the method: As an experimental animal, an 8 to 10 weeks old female C57BL/6j mouse {SHIMIZU Laboratory Supplies Co., Ltd.} was used.
The operation of sticking a cellophane adhesive tape {NICHIBAN CO. , Ltd.} on the inner side of the left auricle of the mouse and peeling the tape off <Tape Stripping> was repeated five times to peel off the cuticle. Each 0.02 mL of acetone <Vehicle> or 0.5% (w/v) test substance was applied to the site having undergone the Tape Stripping once a day until the sixth day after the Tape Stripping. On Day 1 of the Tape Stripping, acetone <Vehicle> or a test substance was applied one hour after the Tape stripping. Compound A or monocitrate of Compound B was used as a test substance.
After one, five and seven days from the Tape Stripping, the total NMF amount of the inner side of the left auricle was determined by an in vivo confocal Raman spectrometer {model 3510, River Diagnostics, Inc.}.
A Raman spectrum in the region of 400 to 1800 cm^−1 was measured at an excitation wavelength of 785 nm at intervals of 1 micrometer from the surface of the inner side of the left auricle to the depth of 8 micrometers. A total NMF amount was quantified as an amount per keratin by using Skin Tools 2.0 {River Diagnostics, Inc.}. […] An average value of the total NMF amount was calculated for each measurement depth, and was shown as an individual value at each depth.

Setting [7] is: in the absence of IL-4/IL-13, five days.
Setting [8] is: in the presence of IL-4/IL-13 20 ng/mL, five days, FIG. 8.

As to `C[C@H]1CN(C(=O)CC#N)[C@]12CCN(c1ncnc3[nH]ccc13)C2` [Compound A, 3-[(3S,4R)-3-methyl-6-(7H-pyrrolo[2,3-d]pyrimidin-4-yl)-1,6-diazaspiro[3.4]octan-1-yl]-3-oxopropanenitrile], in the assay with JAK (stated as known), the JAK inhibition entry was “known to inhibit JAK”. Besides, the “total NMF amount (NMF production)” value (in the assay on dry skin model mouse [1]; in assay [6]) was “NMF production increasing action” throughout. For the same compound, the “profilaggrin mRNA amount” value in the assay with dry skin model mouse [2] is “increase”. The filaggrin protein amount result in assay [3] (setting [7]) and in assay [3] (setting [8]) was “increase” each time. Besides, the loricrin protein amount result in assay [3] (setting [7]) and in assay [3] (setting [8]) was “increase” throughout. In addition, in assay [4], the “ear swelling (auricle thickness variation)” value was “suppression of ear swelling”. The “TEWL (transepidermal water loss)” value in the assay on dry skin model mouse [5] is reported as “accelerating a reduction in TEWL”.
Regarding `N#CC[C@H](C1CCCC1)n1cc(-c2ncnc3[nH]ccc23)cn1` [Compound C, (3R)-3-cyclopentyl-3-[4-(7H-pyrrolo[2,3-d]pyrimidin-4-yl)-1 H-pyrazol-1-yl]propanenitrile, reference compound], the JAK inhibition result in the assay on JAK is recorded as “known to inhibit JAK”.
As for `C[C@@H]1CCN(C(=O)CC#N)C[C@@H]1N(C)c1ncnc2[nH]ccc12` [monocitrate of Compound B, 3-{(3R,4R)-4-methyl-3-[methyl(7H-pyrrolo[2,3-d]pyrimidin-4-yl)amino]piperidin-1-yl}-3-oxopropanenitrile, reference compound], the “total NMF amount (NMF production)” value in assay [6] is recorded as “NMF production increasing action”.
